What is called Kd is the free concentration of one partner at which half of the binding sites on the other are occupied at equilibrium, for simple one-to-one binding.

Data on 2 molecules can be found in paper PMC5407854, “Inhibitor of ppGalNAc-T3-mediated O-glycosylation blocks cancer cell invasiveness and lowers FGF23 levels” (eLife, 2017).

For one series, the target named is T1, ppGalNAc-T3 (Homo sapiens, UniProt Q14435).
T1 construct: gene GALNT3; purified lumenal domain (containing catalytic and lectin domains)
T1 sequence (Q14435 38-633 limits assumed): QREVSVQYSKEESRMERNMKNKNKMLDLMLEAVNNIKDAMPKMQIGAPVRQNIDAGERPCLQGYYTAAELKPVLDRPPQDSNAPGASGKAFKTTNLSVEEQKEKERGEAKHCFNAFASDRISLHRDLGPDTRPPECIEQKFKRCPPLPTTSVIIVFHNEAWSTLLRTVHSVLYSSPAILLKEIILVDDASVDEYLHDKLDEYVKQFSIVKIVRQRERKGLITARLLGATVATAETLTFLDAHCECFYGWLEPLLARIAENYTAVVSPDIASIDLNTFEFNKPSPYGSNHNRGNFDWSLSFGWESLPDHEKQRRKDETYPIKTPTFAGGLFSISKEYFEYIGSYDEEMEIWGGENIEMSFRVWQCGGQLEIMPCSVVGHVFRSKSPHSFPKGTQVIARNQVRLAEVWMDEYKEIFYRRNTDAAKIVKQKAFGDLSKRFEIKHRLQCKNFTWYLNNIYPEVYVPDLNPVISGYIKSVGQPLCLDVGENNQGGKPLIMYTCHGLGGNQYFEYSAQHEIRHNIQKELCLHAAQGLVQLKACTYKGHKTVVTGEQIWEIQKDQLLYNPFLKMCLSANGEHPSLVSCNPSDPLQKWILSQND
Kind of series: intrinsic tryptophan fluorescence quenching; also UDP-Glo inhibition of purified enzyme (IC50 […]). Type of series: binding.

Series [1] can be described thus: anti-FLAG immunoblot of cell lysates, with or without chloroquine. As to conditions: glycan lost; control: untreated. (Immunoblotting shows a protein as a band on a membrane.)

Consider `O=C(Nc1ccc(Nc2ccncc2)cc1)c1ccc(Nc2ccnc3ccc([N+](=O)[O-])cc23)cc1` [compound 1614, T3Inh-1], for which the Kd at ppGalNAc-T3 was ~17 µM.

B1: FGF23: T3Inh-1 (protein)
parent chain: MLGARLRLWVCALCSVCSMSVLRAYPNASPLLGSSWGGLIHLYTATARNSYHLQIHKNGHVDGAPHQTIYSALMIRSEDAGFVVITGVMSRRYLCMDFRGNIFGSHYFDPENCRFQHQTLENGYDVYHSPQYHFLVSLGRAKRAFLPGMNPPPYSQFLSRRNEIPLIHFNTPIPRRHTRSAEDDSERDPLNVLKPRARMTPAPASCSQELPSAEDNSPMASDPLGVVRGGRVNTHAGGTGPEGCRPFAKFI
Take B1: in series [1], the expression_or_secretion result is reported as “no change”.
